The test system of one assay is K562 cells. As to the kind of experiment: Cytotoxicity on human cancer cells (WST-1), K562. The following applies: WST-1 on D4, read-out: K562 IC50. The format is cell-based. On the procedure: Evaluation of Cytotoxicity Effects on Human Cancer Cells
The effects of the compounds of the invention on the viability of human cancer cells were studied on various human cancer cell lines of differing tissue origins (A549, NCI-H460: lung cancer; MDA-MB-231: breast cancer; HCT-116, HT-29: colon cancer; MIA-PaCa-2: pancreatic cancer; K562: leukaemia). All cell lines were obtained from ATCC or ECACC. Cells were cultured in the culture media described below, under a 37° C., 5% CO2 humidified atmosphere, according to a standard operating procedure.
On D0, the cells were plated in 90 μl in 96 wells plates at densities ranging from 500 to 5,000 cells per well.
Following addition of the test substance the cells were protected from light. The solvents (DMSO and specific control solvent were added at the maximal concentration: 10 μl/well (3 wells/condition)).
On D4, the Cell Proliferation Reagent WST-1 was added to each well (10 μl/well), according to a standard operating procedure. The cells were then incubated for 30 min to 4 h at 37° C.-5% CO2. After these incubations, the 96-well plates were shaken thoroughly for 1 min with Multiskan® EX apparatus (Thermo Labsystems, France). The absorbence was measured at 450 nm, the reference wavelength being 620 nm. The analysis of the results was performed with the Ascent software 2.6 (Thermo Labsystems, France), Microsoft Excel 2003 and GraphPad Prism 4.03 softwares to give the concentration of the compounds that induces the death of 50% of the cells (IC50).

Assay [1] addresses T1, Human recombinant MKlp2 motor domain1-519, His tagged (Homo sapiens, UniProt O95235).
T1 construct: Human recombinant MKlp2 motor domain1-519, His tagged; His; purchased Cytoskeleton MP05
T1 sequence (O95235 1-519): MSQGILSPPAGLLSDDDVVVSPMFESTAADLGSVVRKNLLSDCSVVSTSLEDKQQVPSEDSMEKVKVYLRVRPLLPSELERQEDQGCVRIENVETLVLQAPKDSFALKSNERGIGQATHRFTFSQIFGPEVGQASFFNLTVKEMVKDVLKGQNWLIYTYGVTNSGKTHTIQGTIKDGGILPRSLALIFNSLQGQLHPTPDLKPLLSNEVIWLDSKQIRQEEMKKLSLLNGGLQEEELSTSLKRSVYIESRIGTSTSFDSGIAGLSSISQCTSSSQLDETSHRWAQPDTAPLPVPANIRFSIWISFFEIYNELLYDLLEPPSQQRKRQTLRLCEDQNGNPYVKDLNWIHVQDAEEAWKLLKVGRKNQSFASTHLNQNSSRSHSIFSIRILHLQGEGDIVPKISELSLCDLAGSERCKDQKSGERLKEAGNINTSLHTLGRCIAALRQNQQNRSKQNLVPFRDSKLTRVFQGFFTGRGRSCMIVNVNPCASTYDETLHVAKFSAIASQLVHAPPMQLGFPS
As to the kind of experiment: Microtubule stimulated ATPase activity of the MKlp2 motor domain (Kinesin ELIPA Assay Kit). Particulars: read-out: MKIp2 IC50. The format is biochemical. On the procedure:
Evaluation of Inhibitory Effects on the Microtubule Stimulated ATPase Activity of the MKlp2 Motor Domain.
MKlp2 ATPase activity was measured by monitoring real time free phosphate generation using the Kinesin ELIPA Assay Kit. The assay is based upon an absorbance shift (330 nm-360 nm) that occurs when 2-amino-6-mercapto-7-methylpurine ribonucleoside (MESG) is catalytically converted to 2-amino-6-mercapto-7-methylpurine in the presence of inorganic phosphate (Pi). One molecule of Pi will yield one molecule of 2-amino-6-mercapto-7-methylpurine in an essentially irreversible reaction.
All experiments were performed at 22° C.
Condition 1, compound preparation.
The compounds were dissolved in DMSO at 30× the maximum concentration to be tested. […] DMSO solutions were pipetted directly into each well.
Condition 2, reaction's “motor mix”.
The following were mixed sequentially in the specified order at RT to obtain the “motor mix”.
20 mL: 15 mM Pipes-NaOH pH 7.0, 10 mM MgCl2, 30 μM Tx (Buffer 1).
10 mL: 5× MSEG (ELIPA 1 reagent, Cat. # BK051).
10 mL: 2.5 mg/mL porcine brain microtubules (3×10 mg Cat. # MT002-XL resuspended in 12 mL of Buffer 1).
0.5 mL: 100×PNP (ELIPA 2 reagent, cat. # BK051).
Condition 3, reaction initiation.
The motor mix was pipetted into each well to obtain 80% of total volume. The reaction was initiated by adding a 20% of total volume of 5 mM ATP into each well.
The reactions were measured in a SpectraMax M2 (Molecular Devices) set in kinetic mode and 360 nm absorbance wavelength. The start protocol was 5 second rapid circular mixing, 21 readings, 30 seconds apart.

Setting [2] is: Table 6 (prodrugs, formula II), K562 cells.

In patent US10189782B2, “Derivatives of indole for the treatment of cancer, viral infections and lung diseases” (BIOKINESIS, priority 2012, dated 2019) one finds IC50 data, which are given here for 19 compounds.

Structures can show the parent of a compound that is named as a salt. Where two headings read alike, the source gives them in different places.

As to `N#C/C(=C\c1cnccc1-c1ccoc1)c1c[nH]c2ccc(Br)cc12` [Example 34, (Z)-2-(5-bromo-1H-indol-3-yl)-3-(4-(furan-3-yl)pyridin-3-yl)acrylonitrile], the IC50 came out at 2.2 µM in the assay with K562 cells (Table 4, K562 leukaemia cells) and 0.07 µM in assay [1] (Table 3, 22° C.).

Consider `N#C/C(=C/c1cnccc1-c1ccoc1)c1c[nH]c2ccc(Br)cc12` [Example 34b, (E)-2-(5-bromo-1H-indol-3-yl)-3-(4-(furan-3-yl)pyridin-3-yl)acrylonitrile], for which the IC50 in the assay with K562 cells (Table 4, K562 leukaemia cells) was 14.3 µM; in assay [1] (Table 3, 22° C.) it was 0.96 µM.

On to `N#C/C(=C\c1c[n+]([O-])ccc1-c1ccoc1)c1c[nH]c2ccc(Br)cc12` [Example 48, (Z)-3-(2-(5-bromo-1H-indol-3-yl)-2-cyanovinyl)-4-(furan-3-yl)pyridine-1-oxide], for which the IC50 came out at 6.71 µM in the assay with K562 cells (Table 4, K562 leukaemia cells) and 0.73 µM in assay [1] (Table 3, 22° C.).

Take `COc1cc[n+]([O-])cc1/C=C(\C#N)c1c[nH]c2ccc(Cl)cc12` [Example 49, (Z)-3-(2-(5-chloro-1H-indol-3-yl)-2-cyanovinyl)-4-methoxypyridine 1-oxide]: the IC50 came to 9.23 µM in the assay with K562 cells (Table 4, K562 leukaemia cells) and 0.56 µM in assay [1] (Table 3, 22° C.).

Take `COc1ccc2c(/C(C#N)=C/c3cc(C#N)ccc3OC)c[nH]c2c1` [Example 54, (Z)-3-(2-cyano-2-(6-methoxy-1H-indol-3-yl)vinyl)-4-methoxybenzonitrile]: the IC50 in the assay on K562 cells (Table 4, K562 leukaemia cells) came to 0.02 µM; in assay [1] (Table 3, 22° C.), 1.4 µM.

As to `COc1ccncc1/C=C(\C#N)c1cn(C(C)=O)c2ccc(Br)cc12` [Example 55, (Z)-2-(1-acetyl-5-bromo-1H-indol-3-yl)-3-(4-methoxypyridin-3-yl)acrylonitrile], the IC50 with K562 cells (setting [2]) was 0.55 µM; in assay [1] (Table 6 (prodrugs, formula II)) it was 13.7 µM.

In the case of `COc1ccc(C#N)cc1/C=C(\C#N)c1cn(C(C)=O)c2ccc(Br)cc12` [Example 56, (Z)-3-(2-(1-acetyl-5-bromo-1H-indol-3-yl)-2-cyanovinyl)-4-methoxybenzonitrile], the IC50 with K562 cells (setting [2]) was 0.25 µM; in assay [1] (Table 6 (prodrugs, formula II)) it was 16.7 µM.

On to `COc1ccncc1/C=C(\C#N)c1cn(C(=O)C(C)(C)C)c2ccc(Br)cc12` [Example 57, (Z)-2-(5-bromo-1-pivaloyl-1H-indol-3-yl)-3-(4-methoxypyridin-3-yl)acrylonitrile], for which the IC50 with K562 cells (setting [2]) came to 0.2 µM; in assay [1] (Table 6 (prodrugs, formula II)), 20 µM.

Consider `COc1ccc(C#N)cc1/C=C(\C#N)c1cn(C(=O)C(C)(C)C)c2ccc(Br)cc12` [Example 58, (Z)-3-(2-(5-bromo-1-pivaloyl-1H-indol-3-yl)-2-cyanovinyl)-4-methoxybenzonitrile], for which the IC50 worked out at 0.06 µM in the assay with K562 cells (setting [2]) and 7.5 µM in assay [1] (Table 6 (prodrugs, formula II)).

Take `COc1ccc(C#N)cc1/C=C(\C#N)c1cn(C(=O)OC(C)(C)C)c2ccc(Br)cc12` [Example 64, (Z)-tert-butyl 5-bromo-3-(1-cyano-2-(5-cyano-2-methoxyphenyl)vinyl)-1H-indole-1-carboxylate]: the IC50 in the assay on K562 cells (setting [2]) is 0.24 µM; in assay [1] (Table 6 (prodrugs, formula II)) it was 19.6 µM.

`COc1ccc(C#N)cc1/C=C(\C#N)c1cn(C(=O)CN2CCN(C)CC2)c2ccc(Br)cc12` [Example 68, (Z)-3-(2-(5-bromo-1-(2-(4-methylpiperazin-1-yl)acetyl)-1H-indol-3-yl)-2-cyanovinyl)-4-methoxybenzonitrile]: the IC50 in the assay with K562 cells (setting [2]) is 0.03 µM; in assay [1] (Table 6 (prodrugs, formula II)) it was more than 50 µM.

On to `COc1ccc(C#N)cc1/C=C(\C#N)c1cn(C(=O)C[C@H](C)N)c2ccc(Br)cc12` [Example 70, (S,Z)-3-(2-(1-(3-aminobutanoyl)-5-bromo-1H-indol-3-yl)-2-cyanovinyl)-4-methoxybenzonitrile hydrochloride], for which the IC50 in the assay with K562 cells (setting [2]) is 0.01 µM; in assay [1] (Table 6 (prodrugs, formula II)), more than 50 µM.

As to `COc1ccc(C#N)cc1/C=C(\C#N)c1cn(C(=O)CN)c2ccc(Br)cc12` [Example 71, (Z)-3-(2-(1-(2-aminoacetyl)-5-bromo-1H-indol-3-yl)-2-cyanovinyl)-4-methoxybenzonitrile hydrochloride], the IC50 is 0.01 µM in the assay with K562 cells (setting [2]) and 1.9 µM in assay [1] (Table 6 (prodrugs, formula II)).

Regarding `COc1ccc(C#N)cc1/C=C(\C#N)c1cn(C(=O)CN2CCNCC2)c2ccc(Br)cc12` [Example 72, (Z)-3-(2-(5-bromo-1-(2-(piperazin-1-yl)acetyl)-1H-indol-3-yl)-2-cyanovinyl)-4-methoxybenzonitrile Hydrochloride], the IC50 in the assay on K562 cells (setting [2]) is 0.01 µM; in assay [1] (Table 6 (prodrugs, formula II)) it was more than 50 µM.

As to `COCCOCCOCC(=O)n1cc(/C(C#N)=C/c2cc(C#N)ccc2OC)c2cc(Br)ccc21` [Example 73, (Z)-3-(2-(5-bromo-1-(2-(2-(2-methoxyethoxy)ethoxy)acetyl)-1H-indol-3-yl)-2-cyanovinyl)-4-methoxybenzonitrile], the IC50 with K562 cells (setting [2]) was 0.03 µM; in assay [1] (Table 6 (prodrugs, formula II)) it was more than 50 µM.

On to `COc1ccc(C#N)cc1/C=C(\C#N)c1cn(C(=O)[C@@H](N)CO)c2ccc(Br)cc12` [Example 74, (S,Z)-3-(2-(1-(2-amino-3-hydroxypropanoyl)-5-bromo-1H-indol-3-yl)-2-cyanovinyl)-4-methoxybenzonitrile hydrochloride], for which the IC50 with K562 cells (setting [2]) is 0.01 µM; in assay [1] (Table 6 (prodrugs, formula II)), 2.1 µM.

`COc1ccc(C#N)cc1/C=C(\C#N)c1cn(C(=O)C2CCC(=O)N2)c2ccc(Br)cc12` (centres unmarked) [Example 75, (Z)-3-(2-(5-bromo-1-(5-oxopyrrolidine-2-carbonyl)-1H-indol-3-yl)-2-cyanovinyl)-4-methoxybenzonitrile]: the concentration for half-maximal inhibition (IC50) with K562 cells (setting [2]) was 0.02 µM; in assay [1] (Table 6 (prodrugs, formula II)), 4.6 µM.

In the case of `COc1ccc(C#N)cc1/C=C(\C#N)c1cn(C(=O)[C@H](N)CCCCN)c2ccc(Br)cc12` [Example 76, (R,Z)-3-(2-(5-bromo-1-(2,6-diaminohexanoyl)-1H-indol-3-yl)-2-cyanovinyl)-4-methoxybenzonitrile dihydrochloride], the IC50 in the assay with K562 cells (setting [2]) was 0.04 µM; in assay [1] (Table 6 (prodrugs, formula II)), 1.3 µM.

As for `COc1ccc(C#N)cc1/C=C(\C#N)c1cn(C(=O)CCOP(=O)(O)O)c2ccc(Br)cc12` [Example 79, (Z)-3-(5-bromo-3-(1-cyano-2-(5-cyano-2-methoxyphenyl)vinyl)-1H-indol-1-yl)-3-oxopropyl dihydrogen phosphate], the IC50 in the assay on K562 cells (setting [2]) was 0.4 µM; in assay [1] (Table 6 (prodrugs, formula II)), more than 50 µM.
